Literature values, collected in patent US20030073069A1, “Drug rescue by redesign of ADMET/PK properties” (priority 2001, published 2003).

Molecular target: CYP 3A4 (Homo sapiens, UniProt P08684)
Settings: indicates a reactive intermediate formed by CYP 3A4 metabolism

Sequence of CYP 3A4 (P08684 whole entry): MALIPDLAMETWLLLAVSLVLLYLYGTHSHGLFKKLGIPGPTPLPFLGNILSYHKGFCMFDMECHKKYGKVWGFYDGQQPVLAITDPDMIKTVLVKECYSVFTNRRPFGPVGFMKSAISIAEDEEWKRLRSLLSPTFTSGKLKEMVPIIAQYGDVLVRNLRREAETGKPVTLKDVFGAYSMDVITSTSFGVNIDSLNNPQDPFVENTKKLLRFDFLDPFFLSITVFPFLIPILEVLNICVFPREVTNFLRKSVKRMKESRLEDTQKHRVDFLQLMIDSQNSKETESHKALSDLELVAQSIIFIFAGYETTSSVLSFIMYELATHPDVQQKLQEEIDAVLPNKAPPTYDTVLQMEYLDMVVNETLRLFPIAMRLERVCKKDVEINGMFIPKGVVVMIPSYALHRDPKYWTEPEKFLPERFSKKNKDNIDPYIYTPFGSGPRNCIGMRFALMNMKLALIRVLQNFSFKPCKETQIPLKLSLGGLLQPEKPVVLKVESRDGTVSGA

inhibition of CYP 3A4: time and NADPH-dependent inhibition
SMILES: Cc1c(C)c2c(c(C)c1O)CCC(C)(COc1ccc(CC3SC(=O)NC3=O)cc1)O2 (stereo not shown) [troglitazone]
